What was measured:
Assay in all cases: relative viability (nuclei count vs DMSO), 5 days (fraction); higher = more cells survive
[1] = compound: O=C1NC(=O)[C@@H](c2cn3c4c(cccc24)CCC3)[C@@H]1c1c[nH]c2ccccc12 [Tivantinib] + Cc1nc(Nc2ncc(C(=O)Nc3c(C)cccc3Cl)s2)cc(N2CCN(CCO)CC2)n1 [Dasatinib] (partner 0.075 µM)
Summary of the method: (§1)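 Nuclei were stained with Hoechst during a one-step fixation (final 0.05% Triton X-100, 1% formaldehyde, 1 ug/ml Hoechst) carried out 5 days after dosing, then counted on 4× images. The cells, lung cancer lines in 1536-well plates, had been dosed by pin tool the day after seeding with one drug alone or a fixed anchor-drug dose plus five library-drug doses (not always all listed) in √10 steps. Relative viability is the nuclei count in treated wells divided by that in vehicle wells, and each value is the median of duplicate plates.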

[2] = compound: CC1(COc2ccc3c(c2)ncn3-c2ccc3cccc(N4CCC(N)CC4)c3n2)COC1 [Crenolanib] + Nc1ncn([C@H]2C[C@H](O)[C@@H](CO)O2)c(=O)n1 [Decitabine] (partner 2 µM)
Summary of the method: as §1

[3] = compound: O=C1NC(=O)[C@@H](c2cn3c4c(cccc24)CCC3)[C@@H]1c1c[nH]c2ccccc12 [Tivantinib] + CCNC(=O)c1noc(-c2cc(C(C)C)c(O)cc2O)c1-c1ccc(CN2CCOCC2)cc1 [Luminespib] (partner 0.01 µM)
Summary of the method: as §1

[4] = compound: CC1(COc2ccc3c(c2)ncn3-c2ccc3cccc(N4CCC(N)CC4)c3n2)COC1 [Crenolanib] + CC(C)C[C@H](NC(=O)[C@H](Cc1ccccc1)NC(=O)c1cnccn1)B(O)O [Bortezomib] (partner 0.002 µM)
Summary of the method: as §1

With NCI-H2009 the relative viability ([1]; first compound 0.01 µM) was 0.381, the relative viability ([1]; first compound 0.03162 µM) was 0.255 and the relative viability ([1]; first compound 0.1 µM) was 0.301. It also gave a relative viability ([1]; first compound 0.3162 µM) of 0.285, a relative viability ([2]; first compound 0.01 µM) of 0.395 and a relative viability ([2]; first compound 0.03162 µM) of 0.367. It also gave a relative viability ([2]; first compound 0.1 µM) of 0.367, a relative viability ([2]; first compound 0.3162 µM) of 0.364 and a relative viability ([2]; first compound 1 µM) of 0.416. For the same cell line, the relative viability ([3]; first compound 0.01 µM) was 0.989, the relative viability ([3]; first compound 0.03162 µM) was 1.08 and the relative viability ([3]; first compound 0.1 µM) was 0.985. It also gave a relative viability ([3]; first compound 0.3162 µM) of 1.1, a relative viability ([4]; first compound 0.01 µM) of 1.14 and a relative viability ([4]; first compound 0.03162 µM) of 1.02. The relative viability ([4]; first compound 0.1 µM) was 1.01, the relative viability ([4]; first compound 0.3162 µM) was 0.959 and the relative viability ([4]; first compound 1 µM) was 0.813.
NCI-H2023 showed a relative viability ([1]; first compound 0.01 µM) of 0.678, a relative viability ([1]; first compound 0.03162 µM) of 0.564 and a relative viability ([1]; first compound 0.1 µM) of 0.506. The relative viability ([1]; first compound 0.3162 µM) was 0.521, the relative viability ([2]; first compound 0.01 µM) was 0.153 and the relative viability ([2]; first compound 0.03162 µM) was 0.266. For the same cell line, the relative viability ([2]; first compound 0.1 µM) was 0.242, the relative viability ([2]; first compound 0.3162 µM) was 0.263 and the relative viability ([2]; first compound 1 µM) was 0.213. The relative viability ([3]; first compound 0.01 µM) was 0.867, the relative viability ([3]; first compound 0.03162 µM) was 0.82 and the relative viability ([3]; first compound 0.1 µM) was 0.673. For the same cell line, the relative viability ([3]; first compound 0.3162 µM) was 0.528, the relative viability ([4]; first compound 0.01 µM) was 1.03 and the relative viability ([4]; first compound 0.03162 µM) was 0.95. It also gave a relative viability ([4]; first compound 0.1 µM) of 0.934, a relative viability ([4]; first compound 0.3162 µM) of 1.14 and a relative viability ([4]; first compound 1 µM) of 0.578.
For NCI-H2085, the relative viability ([1]; first compound 0.01 µM) was 0.331, the relative viability ([1]; first compound 0.03162 µM) was 0.244 and the relative viability ([1]; first compound 0.1 µM) was 0.239. It also gave a relative viability ([1]; first compound 0.3162 µM) of 0.209, a relative viability ([2]; first compound 0.03162 µM) of 0.538 and a relative viability ([2]; first compound 0.1 µM) of 0.517. For the same cell line, the relative viability ([2]; first compound 0.3162 µM) was 0.546, the relative viability ([2]; first compound 1 µM) was 0.534 and the relative viability ([3]; first compound 0.01 µM) was 0.429. It also gave a relative viability ([3]; first compound 0.03162 µM) of 0.379, a relative viability ([3]; first compound 0.1 µM) of 0.403 and a relative viability ([3]; first compound 0.3162 µM) of 0.42. For the same cell line, the relative viability ([4]; first compound 0.01 µM) was 1.05, the relative viability ([4]; first compound 0.03162 µM) was 1.1 and the relative viability ([4]; first compound 0.1 µM) was 1.07. It also gave a relative viability ([4]; first compound 0.3162 µM) of 1.11 and a relative viability ([4]; first compound 1 µM) of 0.968.
With NCI-H2087 the relative viability ([1]; first compound 0.01 µM) was 0.83, the relative viability ([1]; first compound 0.03162 µM) was 0.942 and the relative viability ([1]; first compound 0.1 µM) was 0.825. For the same cell line, the relative viability ([1]; first compound 0.3162 µM) was 0.913, the relative viability ([2]; first compound 0.01 µM) was 0.267 and the relative viability ([2]; first compound 0.03162 µM) was 0.341. For the same cell line, the relative viability ([2]; first compound 0.1 µM) was 0.427, the relative viability ([2]; first compound 0.3162 µM) was 0.303 and the relative viability ([2]; first compound 1 µM) was 0.335. It also gave a relative viability ([3]; first compound 0.01 µM) of 0.165, a relative viability ([3]; first compound 0.03162 µM) of 0.182 and a relative viability ([3]; first compound 0.1 µM) of 0.139. It also gave a relative viability ([3]; first compound 0.3162 µM) of 0.137, a relative viability ([4]; first compound 0.01 µM) of 0.885 and a relative viability ([4]; first compound 0.03162 µM) of 0.74. It also gave a relative viability ([4]; first compound 0.1 µM) of 0.917, a relative viability ([4]; first compound 0.3162 µM) of 0.865 and a relative viability ([4]; first compound 1 µM) of 0.947.
With NCI-H2126 the relative viability ([1]; first compound 0.01 µM) was 0.583, the relative viability ([1]; first compound 0.03162 µM) was 0.676 and the relative viability ([1]; first compound 0.1 µM) was 0.594. The relative viability ([1]; first compound 0.3162 µM) was 0.565, the relative viability ([2]; first compound 0.01 µM) was 0.544 and the relative viability ([2]; first compound 0.03162 µM) was 0.564. The relative viability ([2]; first compound 0.1 µM) was 0.61, the relative viability ([2]; first compound 0.3162 µM) was 0.659 and the relative viability ([2]; first compound 1 µM) was 0.586. The relative viability ([3]; first compound 0.01 µM) was 0.978, the relative viability ([3]; first compound 0.03162 µM) was 0.886 and the relative viability ([3]; first compound 0.1 µM) was 0.884. For the same cell line, the relative viability ([3]; first compound 0.3162 µM) was 0.745, the relative viability ([4]; first compound 0.01 µM) was 1.09 and the relative viability ([4]; first compound 0.03162 µM) was 1.17. It also gave a relative viability ([4]; first compound 0.1 µM) of 1.13, a relative viability ([4]; first compound 0.3162 µM) of 1.15 and a relative viability ([4]; first compound 1 µM) of 1.1.
NCI-H2347 showed a relative viability ([1]; first compound 0.01 µM) of 0.345, a relative viability ([1]; first compound 0.03162 µM) of 0.267 and a relative viability ([1]; first compound 0.1 µM) of 0.283. The relative viability ([1]; first compound 0.3162 µM) was 0.306, the relative viability ([2]; first compound 0.01 µM) was 0.657 and the relative viability ([2]; first compound 0.03162 µM) was 0.611. For the same cell line, the relative viability ([2]; first compound 0.1 µM) was 0.605, the relative viability ([2]; first compound 0.3162 µM) was 0.674 and the relative viability ([2]; first compound 1 µM) was 0.6. For the same cell line, the relative viability ([3]; first compound 0.01 µM) was 0.726, the relative viability ([3]; first compound 0.03162 µM) was 0.35 and the relative viability ([3]; first compound 0.1 µM) was 0.285. It also gave a relative viability ([3]; first compound 0.3162 µM) of 0.316, a relative viability ([4]; first compound 0.01 µM) of 1.16 and a relative viability ([4]; first compound 0.03162 µM) of 0.724. It also gave a relative viability ([4]; first compound 0.3162 µM) of 0.727 and a relative viability ([4]; first compound 1 µM) of 1.19.
Cell Line NCI-H2405 has a relative viability ([1]; first compound 0.01 µM) of 0.213, a relative viability ([1]; first compound 0.03162 µM) of 0.213 and a relative viability ([1]; first compound 0.1 µM) of 0.218. For the same cell line, the relative viability ([1]; first compound 0.3162 µM) was 0.169, the relative viability ([2]; first compound 0.01 µM) was 0.775 and the relative viability ([2]; first compound 0.1 µM) was 0.671. For the same cell line, the relative viability ([2]; first compound 0.3162 µM) was 0.781, the relative viability ([2]; first compound 1 µM) was 0.686 and the relative viability ([3]; first compound 0.01 µM) was 0.77. It also gave a relative viability ([3]; first compound 0.03162 µM) of 0.908, a relative viability ([3]; first compound 0.1 µM) of 0.651 and a relative viability ([3]; first compound 0.3162 µM) of 0.586. For the same cell line, the relative viability ([4]; first compound 0.01 µM) was 0.998, the relative viability ([4]; first compound 0.03162 µM) was 0.964 and the relative viability ([4]; first compound 0.1 µM) was 0.921. For the same cell line, the relative viability ([4]; first compound 0.3162 µM) was 1.05 and the relative viability ([4]; first compound 1 µM) was 0.976.
Work on NCI-H3122 yielded a relative viability ([1]; first compound 0.01 µM) of 0.808, a relative viability ([1]; first compound 0.03162 µM) of 0.808 and a relative viability ([1]; first compound 0.1 µM) of 0.788. It also gave a relative viability ([1]; first compound 0.3162 µM) of 0.686, a relative viability ([2]; first compound 0.01 µM) of 0.433 and a relative viability ([2]; first compound 0.03162 µM) of 0.424. The relative viability ([2]; first compound 0.1 µM) was 0.468, the relative viability ([2]; first compound 0.3162 µM) was 0.546 and the relative viability ([2]; first compound 1 µM) was 0.478. The relative viability ([3]; first compound 0.01 µM) was 0.0944, the relative viability ([3]; first compound 0.03162 µM) was 0.103 and the relative viability ([3]; first compound 0.1 µM) was 0.0763. It also gave a relative viability ([3]; first compound 0.3162 µM) of 0.0784, a relative viability ([4]; first compound 0.01 µM) of 1.08 and a relative viability ([4]; first compound 0.03162 µM) of 1.01. For the same cell line, the relative viability ([4]; first compound 0.1 µM) was 1.04, the relative viability ([4]; first compound 0.3162 µM) was 1.05 and the relative viability ([4]; first compound 1 µM) was 1.16.
In the case of PC-3 [JPC-3], the relative viability ([1]; first compound 0.01 µM) is reported as 0.962, the relative viability ([1]; first compound 0.03162 µM) is reported as 1.02 and the relative viability ([1]; first compound 0.1 µM) is reported as 0.988. It also gave a relative viability ([1]; first compound 0.3162 µM) of 0.585, a relative viability ([2]; first compound 0.01 µM) of 0.785 and a relative viability ([2]; first compound 0.1 µM) of 0.806. For the same cell line, the relative viability ([2]; first compound 0.3162 µM) was 0.82, the relative viability ([2]; first compound 1 µM) was 0.806 and the relative viability ([3]; first compound 0.01 µM) was 0.794. For the same cell line, the relative viability ([3]; first compound 0.03162 µM) was 0.777, the relative viability ([3]; first compound 0.1 µM) was 0.678 and the relative viability ([3]; first compound 0.3162 µM) was 0.575. It also gave a relative viability ([4]; first compound 0.01 µM) of 0.814, a relative viability ([4]; first compound 0.03162 µM) of 0.889 and a relative viability ([4]; first compound 0.1 µM) of 0.779. For the same cell line, the relative viability ([4]; first compound 0.3162 µM) was 0.831 and the relative viability ([4]; first compound 1 µM) was 0.749.

From the supplement of paper PMC10307832
